Laboratory results reported in patent publication US4684664A, “Derivatives of β-(4-isocyano-1,2,3,4-diepoxycyclopentyl) acrylic acid” (Kureha Kagaku Kogyo Kabushiki Kaisha, priority 1984, dated 1987).
Values after ≈ are worked out from the molar mass of the structure shown.

How the values were obtained:
Assay type in all cases: cell-based
[1] = test system: Streptococcus faecium IFO 3826; test: Antibacterial activity, agar-dilution MIC, organism No. 27; details: Enterococcus faecium, IFO3826; Organism No. 27, bouillon-agar; read-out: Minimum Inhibitory Concentration
In short: (§1)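 Minimum inhibitory concentration determined on solid bouillon agar by the agar-dilution technique, with values stated as μg/ml.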

[2] = test system: Staphylococcus aureus Terajima; test: Antibacterial activity, agar-dilution MIC, organism No. 2; details: Staphylococcus aureus; Organism No. 2, bouillon-agar; read-out: Minimum Inhibitory Concentration
In short: as §1

[3] = test system: Salmonella shottmuelleri 8006; test: Antibacterial activity, agar-dilution MIC, organism No. 11; details: Salmonella, 8006; Organism No. 11, bouillon-agar; read-out: Minimum Inhibitory Concentration
In short: as §1

[4] = test system: Pseudomonas aeruginosa NCTC 10490; test: Antibacterial activity, agar-dilution MIC, organism No. 16; details: Pseudomonas aeruginosa, NCTC10490; Organism No. 16, bouillon-agar; read-out: Minimum Inhibitory Concentration
In short: as §1

[5] = test system: Aspergillus niger IFO 6342; test: Antifungal activity, agar-dilution MIC, organism No. 30; details: Aspergillus niger, IFO6342; Organism No. 30, bouillon-agar; read-out: Minimum Inhibitory Concentration
In short: as §1

[6] = test system: Proteus mirabilis IFO 3849; test: Antibacterial activity, agar-dilution MIC, organism No. 19; details: Proteus mirabilis, IFO3849; Organism No. 19, bouillon-agar; read-out: Minimum Inhibitory Concentration
In short: as §1

[7] = test system: Proteus vulgaris OX-19; test: Antibacterial activity, agar-dilution MIC, organism No. 20; details: Proteus vulgaris, OX19; Organism No. 20, bouillon-agar; read-out: Minimum Inhibitory Concentration
In short: as §1

[8] = test system: Klebsiella pneumoniae PCI-602; test: Antibacterial activity, agar-dilution MIC, organism No. 7; details: Klebsiella pneumoniae, PCI602; Organism No. 7, bouillon-agar; read-out: Minimum Inhibitory Concentration
In short: as §1

[9] = test system: Proteus vulgaris HX-19; test: Antibacterial activity, agar-dilution MIC, organism No. 21; details: Proteus vulgaris, HX19; Organism No. 21, bouillon-agar; read-out: Minimum Inhibitory Concentration
In short: as §1

[10] = test system: Mycoplasma pneumoniae IID817; test: Antimycoplasmal activity, MIC by phenol red colour change, organism No. 28; details: Mycoplasma, IID817; Organism No. 28, PPLO broth + 1% glucose, 37° C.; read-out: Minimum Inhibitory Concentration (MIC)
Experimental: Mycoplasma pneumoniae IID817 was used as the test microorganism in a culture medium prepared by adding 1% of glucose to "PPLO broth (manufactured by Difco Co.) liquid culture medium" at 37° C. with phenol red as an indicator, thereby culturing the test microorganism.

[11] = test system: Salmonella enteritidis G 14; test: Antibacterial activity, agar-dilution MIC, organism No. 12; details: Salmonella enterica, ENTERITIDIS; Organism No. 12, bouillon-agar; read-out: Minimum Inhibitory Concentration
In short: as §1

[12] = test system: Pseudomonas aeruginosa PAO 1; test: Antibacterial activity, agar-dilution MIC, organism No. 17; details: Pseudomonas aeruginosa, PAO1; Organism No. 17, bouillon-agar; read-out: Minimum Inhibitory Concentration
In short: as §1

[13] = test system: Serratia marcescens IAM 1184; test: Antibacterial activity, agar-dilution MIC, organism No. 13; details: Serratia marcescens, IAM1184; Organism No. 13, bouillon-agar; read-out: Minimum Inhibitory Concentration
Source text: Agar-dilution method was used for determination of the antibacterial activity and antifungal activity while using bouillon-agar culture medium, and the minimum inhibitory concentration of the specimen was expressed by μg/ml of the culture medium.

[14] = test system: Micrococcus luteus ATCC 9341; test: Antibacterial activity, agar-dilution MIC, organism No. 25; details: Micrococcus luteus, ATCC9341; Organism No. 25, bouillon-agar; read-out: Minimum Inhibitory Concentration
In short: as §1

[15] = test system: Escherichia coli NIHJ-JC-2; test: Antibacterial activity, agar-dilution MIC, organism No. 5; details: Escherichia coli, NIHJJC2; Organism No. 5, bouillon-agar; read-out: Minimum Inhibitory Concentration
In short: as §1

[16] = test system: Salmonella typhi 901; test: Antibacterial activity, agar-dilution MIC, organism No. 9; details: Salmonella enterica, TYPHI, read-out: Minimum Inhibitory Concentration
In short: as §1

[17] = test system: Enterobacter cloacae 963; test: Antibacterial activity, agar-dilution MIC, organism No. 24; details: Enterobacter cloacae, 963; Organism No. 24, bouillon-agar; read-out: Minimum Inhibitory Concentration
In short: as §1

[18] = test system: Staphylococcus aureus FDA 209PJc-1; test: Antibacterial activity, agar-dilution MIC, organism No. 1; details: Staphylococcus aureus, FDA209PJC1; Organism No. 1, bouillon-agar; read-out: Minimum Inhibitory Concentration
In short: as §1

[19] = test system: Proteus rettgeri IFO 3850; test: Antibacterial activity, agar-dilution MIC, organism No. 22; details: Providencia rettgeri, IFO3850; Organism No. 22, bouillon-agar; read-out: Minimum Inhibitory Concentration
In short: as §1

[20] = test system: Salmonella paratyphi-A 1015; test: Antibacterial activity, agar-dilution MIC, organism No. 10; details: Salmonella enterica, PARATYPHI, read-out: Minimum Inhibitory Concentration
In short: as §1

[21] = test system: Bacillus subtilis ATCC 6633; test: Antibacterial activity, agar-dilution MIC, organism No. 14; details: Bacillus subtilis, ATCC6633; Organism No. 14, bouillon-agar; read-out: Minimum Inhibitory Concentration
In short: as §1

[22] = test system: Salmonella typhimurium IID 971; test: Antibacterial activity, agar-dilution MIC, organism No. 8; details: Salmonella enterica; Organism No. 8, bouillon-agar; read-out: Minimum Inhibitory Concentration
In short: as §1

[23] = test system: Staphylococcus aureus MS 353; test: Antibacterial activity, agar-dilution MIC, organism No. 3; details: Staphylococcus aureus, MS353; Organism No. 3, bouillon-agar; read-out: Minimum Inhibitory Concentration
In short: as §1

[24] = test system: Proteus morganii IFO 3848; test: Antibacterial activity, agar-dilution MIC, organism No. 18; details: Morganella morganii, IFO3848; Organism No. 18, bouillon-agar; read-out: Minimum Inhibitory Concentration
In short: as §1

[25] = test system: Pseudomonas aeruginosa IFO 3445; test: Antibacterial activity, agar-dilution MIC, organism No. 15; details: Pseudomonas aeruginosa, IFO3445; Organism No. 15, bouillon-agar; read-out: Minimum Inhibitory Concentration
In short: as §1

[26] = test system: Candida albicans IAM 4905; test: Antifungal activity, agar-dilution MIC, organism No. 29; details: Candida albicans, IAM4905; Organism No. 29, bouillon-agar; read-out: Minimum Inhibitory Concentration
In short: as §1

[27] = test system: Streptococcus pyogenes IFO 3340; test: Antibacterial activity, agar-dilution MIC, organism No. 26; details: Streptococcus pyogenes, IFO3340; Organism No. 26, bouillon-agar; read-out: Minimum Inhibitory Concentration
In short: as §1

[28] = test system: Enterobacter aerogenes ATCC 13048; test: Antibacterial activity, agar-dilution MIC, organism No. 23; details: Klebsiella aerogenes, ATCC13048; Organism No. 23, bouillon-agar; read-out: Minimum Inhibitory Concentration
In short: as §1

[29] = test system: Escherichia coli K12 C600 IAM 1264; test: Antibacterial activity, agar-dilution MIC, organism No. 6; details: Escherichia coli, IAM1264; Organism No. 6, bouillon-agar; read-out: Minimum Inhibitory Concentration
In short: as §1

[30] = test system: Streptococcus pyogenes Cook; test: Antibacterial activity, agar-dilution MIC, organism No. 4; details: Streptococcus pyogenes; Organism No. 4, bouillon-agar; read-out: Minimum Inhibitory Concentration
In short: as §1

| Structure (SMILES) | MIC [2] | MIC [3] | MIC [4] | MIC [5] | MIC [6] | MIC [7] | MIC [8] | MIC [9] | MIC [10] | MIC [11] | MIC [12] | MIC [13] | MIC [14] | MIC [15] | MIC [16] | MIC [17] | MIC [18] | MIC [19] | MIC [20] | MIC [21] | other results |
| --- | --- | --- | --- | --- | --- | --- | --- | --- | --- | --- | --- | --- | --- | --- | --- | --- | --- | --- | --- | --- | --- |
| [C-]#[N+]C12CC3(/C=C/C(=O)Nc4ccccc4N)OC3C1O2 (stereo not drawn) [compound 61] | 12.5 µg/mL (≈ 44.1 µM) | 3.13 µg/mL (≈ 11 µM) | > 200 µg/mL | 100 µg/mL (≈ 353 µM) | 12.5 µg/mL (≈ 44.1 µM) | 3.13 µg/mL (≈ 11 µM) | 1.56 µg/mL (≈ 5.51 µM) | 1.56 µg/mL (≈ 5.51 µM) | < 0.2 µg/mL | 3.13 µg/mL (≈ 11 µM) | > 200 µg/mL | 25 µg/mL (≈ 88.2 µM) | 0.78 µg/mL (≈ 2.75 µM) | 12.5 µg/mL (≈ 44.1 µM) | 3.13 µg/mL (≈ 11 µM) | 100 µg/mL (≈ 353 µM) | 3.13 µg/mL (≈ 11 µM) | 3.13 µg/mL (≈ 11 µM) | 3.13 µg/mL (≈ 11 µM) | 25 µg/mL (≈ 88.2 µM) | MIC [1]: 100 µg/mL (≈ 353 µM); MIC [22]: 6.25 µg/mL (≈ 22.1 µM); MIC [23]: 3.13 µg/mL (≈ 11 µM); MIC [24]: 3.13 µg/mL (≈ 11 µM); MIC [25]: > 200 µg/mL; MIC [26]: 25 µg/mL (≈ 88.2 µM); MIC [27]: 6.25 µg/mL (≈ 22.1 µM); MIC [28]: > 200 µg/mL; MIC [29]: 12.5 µg/mL (≈ 44.1 µM) |
| [C-]#[N+]C12CC3(/C=C/C(=O)Nc4nccs4)OC3C1O2 (stereo not drawn) [compound 65] | 0.39 µg/mL (≈ 1.42 µM) | 1.56 µg/mL (≈ 5.67 µM) | > 200 µg/mL | 50 µg/mL (≈ 182 µM) | > 200 µg/mL | 3.13 µg/mL (≈ 11.4 µM) | 1.56 µg/mL (≈ 5.67 µM) | 0.2 µg/mL (≈ 0.727 µM) | < 0.2 µg/mL | 3.13 µg/mL (≈ 11.4 µM) | > 200 µg/mL | 12.5 µg/mL (≈ 45.4 µM) | 0.1 µg/mL (≈ 0.363 µM) | 12.5 µg/mL (≈ 45.4 µM) | 3.13 µg/mL (≈ 11.4 µM) | > 200 µg/mL | < 0.1 µg/mL | 100 µg/mL (≈ 363 µM) | 1.56 µg/mL (≈ 5.67 µM) | 12.5 µg/mL (≈ 45.4 µM) | MIC [30]: 12.5 µg/mL (≈ 45.4 µM); MIC [22]: 25 µg/mL (≈ 90.8 µM); MIC [23]: < 0.1 µg/mL; MIC [24]: 1.56 µg/mL (≈ 5.67 µM); MIC [25]: > 200 µg/mL; MIC [26]: 12.5 µg/mL (≈ 45.4 µM); MIC [28]: > 200 µg/mL; MIC [29]: 6.25 µg/mL (≈ 22.7 µM) |
